According to US20090325964A1, “Piperazine Metabotropic Glutamate Receptor 5 (MGLUR5) Negative Allosteric Modulators For Anxiety/Depression” (Wyeth, priority 2008, published 2009):
Where two headings read alike, the source gives them in different places.

Molecular target: T1, rat mGluR5 receptor (Rattus norvegicus, UniProt P31424)
T1 construct: expressed in transfected cells; host or cells: HEK-293
Assay: [3H]-MPEP displacement binding assay, HEK-293 cell membranes expressing rat mGluR5
Conditions: for Ki: read-out: Median Ki
In short: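 Membranes from HEK-293 cells expressing rat mGluR5 (12-25 μg protein), incubated 60 min at room temperature with 4 nM [3H]-MPEP in 50 mM Tris pH 7.5, then filtered. Nonspecific binding defined with 10 μM MPEP.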

[1] = [3H]-MPEP displacement, rat mGluR5
[2] = @ 10 μM compound, Biological Activity, Table 2A, read-out: PCT INHIB (%) @ 10 μM
[3] = single point, @ 10 μM compound, Table 3A, read-out: PCT INHIB (%) @ 10 μM
[4] = 1 h, single point, @ 10 μm compound, Table 1A, read-out: PCT INHIB (%) @ 10 μm

T1 sequence (P31424 21-1203): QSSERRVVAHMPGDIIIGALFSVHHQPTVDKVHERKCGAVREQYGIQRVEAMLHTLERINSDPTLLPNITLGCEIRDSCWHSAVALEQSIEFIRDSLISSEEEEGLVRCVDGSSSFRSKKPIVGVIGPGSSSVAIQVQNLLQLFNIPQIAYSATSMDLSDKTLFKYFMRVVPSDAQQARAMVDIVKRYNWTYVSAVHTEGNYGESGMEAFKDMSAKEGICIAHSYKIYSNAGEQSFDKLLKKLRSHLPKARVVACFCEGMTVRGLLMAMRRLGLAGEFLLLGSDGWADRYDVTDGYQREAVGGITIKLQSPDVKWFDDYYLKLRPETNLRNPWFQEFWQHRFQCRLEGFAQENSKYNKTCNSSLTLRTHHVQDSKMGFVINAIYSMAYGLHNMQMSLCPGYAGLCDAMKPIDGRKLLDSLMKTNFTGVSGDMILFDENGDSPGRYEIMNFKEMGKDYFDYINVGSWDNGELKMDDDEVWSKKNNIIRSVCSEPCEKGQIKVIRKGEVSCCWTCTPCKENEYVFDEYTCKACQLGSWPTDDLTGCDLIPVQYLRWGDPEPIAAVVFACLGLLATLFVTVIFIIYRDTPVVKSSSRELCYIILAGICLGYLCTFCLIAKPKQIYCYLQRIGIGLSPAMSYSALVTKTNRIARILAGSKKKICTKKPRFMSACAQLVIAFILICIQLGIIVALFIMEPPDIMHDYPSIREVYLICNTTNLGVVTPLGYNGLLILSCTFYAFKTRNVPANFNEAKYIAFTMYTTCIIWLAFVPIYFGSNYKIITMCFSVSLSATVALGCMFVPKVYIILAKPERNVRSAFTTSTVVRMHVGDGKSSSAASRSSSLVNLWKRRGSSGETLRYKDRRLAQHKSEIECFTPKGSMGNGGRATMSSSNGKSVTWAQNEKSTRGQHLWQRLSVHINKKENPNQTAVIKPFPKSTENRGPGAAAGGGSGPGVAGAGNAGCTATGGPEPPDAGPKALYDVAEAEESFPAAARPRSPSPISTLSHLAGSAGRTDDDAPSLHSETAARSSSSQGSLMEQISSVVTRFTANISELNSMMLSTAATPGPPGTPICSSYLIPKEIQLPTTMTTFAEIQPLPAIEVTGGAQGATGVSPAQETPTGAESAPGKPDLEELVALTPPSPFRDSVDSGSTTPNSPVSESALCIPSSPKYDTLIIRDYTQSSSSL

## O=C(c1ccc(F)c(C#Cc2ccccn2)c1)N1CCN(c2ncccn2)CC1 [Compound 312, 2-{4-[4-Fluoro-3-(pyridin-2-ylethynyl)benzoyl]piperazin-1-yl}pyrimidine]
[1]
  Ki: 84 nM

## Cc1ccc(C(=O)N2CCN(c3ncccc3Cl)CC2)cc1C#Cc1ccccn1 [Compound 311, 1-(3-chloropyridin-2-yl)-4-[4-methyl-3-(pyridin-2-ylethynyl)benzoyl]piperazine]
[1]
  Ki: 140 nM

## O=C(c1cccc(C#Cc2ccccc2)c1)N1CCN(c2cccc(C(F)(F)F)c2)CC1 [Compound 85, 1-[3-(phenylethynyl)benzoyl]-4-[3-(trifluoromethyl)phenyl]piperazine]
[2]
  inhibition at 10 µM: 32%

## COc1ccc(C(=O)N2CCN(c3ncccc3C#N)CC2)cc1C#Cc1ccccc1 [Compound 118, 2-{4-[4-methoxy-3-(phenylethynyl)benzoyl]piperazin-1-yl}nicotinonitrile]
[2]
  inhibition at 10 µM: 78%
Biological Activity, Table 2A
  Ki: 1760 nM

## COc1ccc(C(=O)N2CCN(S(=O)(=O)c3cccc4c(N(C)C)cccc34)CC2)cc1C#Cc1ccccn1 [Compound 273, 5-({4-[4-methoxy-3-(pyridin-2-ylethynyl)benzoyl]piperazin-1-yl}sulfonyl)-N,N-dimethylnaphthalen-1-amine]
[1]
  Ki: 1740 nM

## COc1ccc(C(=O)N2CCN(c3nc(Cl)ncc3F)CC2)cc1C#Cc1ccccn1 [Compound 295, 2-chloro-5-fluoro-4-{4-[4-methoxy-3-(pyridin-2-ylethynyl)benzoyl]piperazin-1-yl}pyrimidine]
[1]
  Ki: 102 nM

## COc1cccc(COc2cc(C(=O)N3CCN(c4ccccn4)CC3)ccc2OC)c1 [Compound 161, 1-{4-methoxy-3-[(3-methoxybenzyl)oxy]benzoyl}-4-pyridin-2-ylpiperazine]
[3]
  inhibition at 10 µM: 0%

## COc1ccc(C(=O)N2CCN(c3cnccn3)CC2)cc1C#CCc1ccccc1 [Compound 51, 2-{4-[4-methoxy-3-(3-phenylprop-1-yn-1-yl)benzoyl]piperazin-1-yl}pyrazine]
[4]
  inhibition at 10 µM: 92%
  Ki: 33.9 nM

## O=C(c1ccnc(C#Cc2ccccc2)c1)N1CCN(c2ccc(C(F)(F)F)cn2)CC1 [Compound 123, 1-[2-(phenylethynyl)isonicotinoyl]-4-[5-(trifluoromethyl)pyridin-2-yl]piperazine]
[2]
  inhibition at 10 µM: 0%

## Cc1ccc(C(=O)N2CCN(c3ccccn3)CC2)cc1C#CCc1ccccc1 [Compound 25, 1-[4-methyl-3-(3-phenylprop-1-yn-1-yl)benzoyl]-4-pyridin-2-ylpiperazine]
[4]
  inhibition at 10 µM: 63%
  Ki: 452 nM

## O=C(c1ccc(C(F)(F)F)c(C#Cc2ccccn2)c1)N1CCN(c2ncccn2)CC1 [Compound 370, 2-(4-{[3-(pyridin-2-ylethynyl)-4-(trifluoromethyl)phenyl]carbonyl}piperazin-1-yl)pyrimidine]
[3H]-MPEP displacement, rat mGluR5 membranes
  Ki: 164 nM

## COc1ccc(C(=O)N2CCN(c3ccccn3)CC2)cc1C#Cc1cccc(O)c1 [Compound 33, 3-({2-methoxy-5-[(4-pyridin-2-ylpiperazin-1-yl)carbonyl]phenyl}ethynyl)phenol]
[4]
  inhibition at 10 µM: 82%
  Ki: 541 nM

## O=C(c1cccc(C#Cc2ccccc2C(F)(F)F)c1)N1CCN(c2ccccn2)CC1 [Compound 5, 1-pyridin-2-yl-4-(3-{[2-(trifluoromethyl)phenyl]ethynyl}benzoyl)piperazine]
[4]
  inhibition at 10 µM: 0%

## O=C(c1cccc(OCc2cccc(F)c2)c1)N1CCN(c2ccccn2)CC1 [Compound 157, 1-{3-[(3-fluorobenzyl)oxy]benzoyl}-4-pyridin-2-ylpiperazine]
[3]
  inhibition at 10 µM: 18%

## N#Cc1cccnc1N1CCN(C(=O)c2cccc(C#Cc3ccccc3)c2)CC1 [Compound 141, 2-{4-[3-(phenylethynyl)benzoyl]piperazin-1-yl}nicotinonitrile]
[2]
  inhibition at 10 µM: 78%
Biological Activity, Table 2A
  Ki: 1090 nM

## 1-(3-chloropyridin-2-yl)-4-{4-methoxy-3-[(3-nitrophenyl)ethynyl]benzoyl}piperazine [Compound 345]
[1]
  Ki: 3210 nM

## Cc1cc(C)nc(N2CCN(C(=O)c3cccc(C#Cc4ccccn4)c3)CC2)n1 [Compound 100, 4,6-dimethyl-2-{4-[3-(pyridin-2-ethynyl)benzoyl]piperazin-1-yl}pyrimidine]
[2]
  inhibition at 10 µM: 55%
Biological Activity, Table 2A
  Ki: 2160 nM

## COc1ccc(C(=O)N2CCN(c3ccccn3)CC2)cc1C#Cc1ccc(F)c(C)c1 [Compound 37, 1-{3-[(4-fluoro-3-methylphenyl)ethynyl]-4-methoxybenzoyl}-4-pyridin-2-ylpiperazine]
[4]
  inhibition at 10 µM: 74%
  Ki: 54.7 nM

## COc1ccc(C(=O)N2CCN(c3ccccn3)CC2)cc1OCc1cccc(Br)c1 [Compound 159, 1-{3-[(3-bromobenzyl)oxy]-4-methoxybenzoyl}-4-pyridin-2-ylpiperazine]
[3]
  inhibition at 10 µM: 26%

## Cc1ccc(C(=O)N2CCN(c3ccccn3)CC2)cc1C#CC1=CCCCC1 [Compound 24, 1-[3-(cyclohex-1-en-1-ylethynyl)-4-methylbenzoyl]-4-pyridin-2-ylpiperazine]
[4]
  inhibition at 10 µM: 71%
  Ki: 1290 nM

## COc1ccc(C(=O)N2CCN(Cc3c(F)cccc3Cl)CC2)cc1C#Cc1ccccn1 [Compound 289, 1-(2-chloro-6-fluorobenzyl)-4-[4-methoxy-3-(pyridin-2-ylethynyl)benzoyl]piperazine]
[1]
  Ki: 269 nM

## O=S(=O)(c1cccc(C#Cc2cccc(O)c2)c1)N1CCN(c2ccccn2)CC1 [Compound 172, 3-({3-[(4-pyridin-2-ylpiperazin-1-yl)sulfonyl]phenyl}ethynyl)phenol]
Single point, @ 10 μM compound, Table 5, read-out: PCT INHIB (%) @ 10 μM
  inhibition at 10 µM: 0%

## O=C(c1cccc(C#CC(O)c2ccccc2)c1)N1CCN(c2ccccn2)CC1 (centres unmarked) [Compound 13, 1-phenyl-3-{3-[(4-pyridin-2-ylpiperazin-1-yl)carbonyl]phenyl}prop-2-yn-1-ol]
[4]
  inhibition at 10 µM: 15%

## COc1ccc(C(=O)N2CCN(C(=O)C3CCCO3)CC2)cc1C#Cc1ccccn1 (centres unmarked) [Compound 249, 1-[4-methoxy-3-(pyridin-2-ylethynyl)benzoyl]-4-(tetrahydrofuran-2-ylcarbonyl)piperazine]
[1]
  Ki: 181 nM

## COc1ccc(C(=O)N2CCN(Cc3c(Cl)cccc3Cl)CC2)cc1C#Cc1ccccn1 [Compound 277, 1-(2,6-dichlorobenzyl)-4-[4-methoxy-3-(pyridin-2-ylethynyl)benzoyl]piperazine]
[1]
  Ki: 272 nM

## COc1ccc(C(=O)N2CCN(c3ccccn3)CC2)cc1OCc1ccccc1 [Compound 158, 1-[3-(benzyloxy)-4-methoxybenzoyl]-4-pyridin-2-ylpiperazine]
[3]
  inhibition at 10 µM: 0%

## O=C(c1cccc(C#Cc2ccccn2)c1)N1CCN(c2ncccc2C(F)(F)F)CC1 [Compound 146, 1-[3-(pyridin-2-ylethynyl)benzoyl]-4-[3-(trifluoromethyl)pyridin-2-yl]piperzine]
@ 10 μM compound, Biological Activity, Table 2A
  PCT INHIB (%) @ 10 μM: 48%

## Cc1c(C#Cc2ccccc2)cccc1C(=O)N1CCN(c2ccccn2)CC1 [Compound 91, 1-[2-methyl-3-(phenylethynyl)benzoyl]-4-pyridin-2-ylpiperazine]
[2]
  inhibition at 10 µM: 18%

## O=C(c1ccc(OCC2CC2)c(C#Cc2ccccn2)c1)N1CCN(c2ncccn2)CC1 [Compound 325, 2-(4-{[4-(cyclopropylmethoxy)-3-(pyridin-2-ylethynyl)phenyl]carbonyl}piperazin-1-yl)pyrimidine]
[1]
  Ki: 1340 nM

## O=C(c1cccc(C#Cc2cccnc2)c1)N1CCN(c2ccccn2)CC1 [Compound 93, 1-pyridin-2-yl-4-[3-(pyridin-3-ylethynyl)benzoyl]piperazine]
[2]
  inhibition at 10 µM: 26%

## Cc1ccnc(N2CCN(C(=O)c3ccnc(C#Cc4ccccc4)c3)CC2)c1 [Compound 124, 1-(4-methylpyridin-2-yl)-4-[2-(phenylethynyl)isonicotinoyl]piperazine]
[2]
  inhibition at 10 µM: 84%
Biological Activity, Table 2A
  Ki: 338 nM

## Cc1ccc(C(=O)N2CCN(c3ccccn3)CC2)cc1C#Cc1cccc(Cl)c1 [Compound 28, 1-{3-[(3-chlorophenyl)ethynyl]-4-methylbenzoyl}-4-pyridin-2-ylpiperazine]
[4]
  inhibition at 10 µM: 79%
  Ki: 76 nM

## COc1ccc(C(=O)N2CCN(c3ccccn3)CC2)cc1C#Cc1cc(F)cc(F)c1 [Compound 21, 1-{3-[(3,5-difluorophenyl)ethynyl]-4-methoxybenzoyl}-4-pyridin-2-ylpiperazine]
[4]
  inhibition at 10 µM: 79%
  Ki: 1940 nM

## COc1cccnc1N1CCN(C(=O)c2cccc(C#Cc3ccccn3)c2)CC1 [Compound 101, 1-(3-methoxypyridin-2-yl)-4-[3-(pyridin-2-ylethynyl)benzoyl]piperazine]
[2]
  inhibition at 10 µM: 52%
Biological Activity, Table 2A
  Ki: 2350 nM

## COc1nc(OC)nc(N2CCN(C(=O)c3ccc(OC)c(C#Cc4ccccn4)c3)CC2)n1 [Compound 305, 2,4-dimethoxy-6-{4-[4-methoxy-3-(pyridin-2-ylethynyl)benzoyl]piperazin-1-yl}-1,3,5-triazine]
[1]
  Ki: 229 nM

## COc1ccc(C(=O)N2CCN(c3cc(Cl)nc(C)n3)CC2)cc1C#Cc1ccccn1 [Compound 297, 4-chloro-6-{4-[4-methoxy-3-(pyridin-2-ylethynyl)benzoyl]piperazin-1-yl}-2-methylpyrimidine]
[1]
  Ki: 159 nM

## COc1ccc(C(=O)N2CCN(c3ncccc3Cl)CC2)cc1C#Cc1ccccc1F [Compound 351, 1-(3-chloropyridin-2-yl)-4-{3-[(2-fluorophenyl)ethynyl]-4-methoxybenzoyl}piperazine]
[1]
  Ki: 4300 nM

## COc1ccc(C(=O)N2CCN(c3ccccn3)CC2)cc1OCc1cccc(C)c1 [Compound 151, 1-{4-methoxy-3-[(3-methylbenzyl)oxy]benzoyl}-4-pyridin-2-ylpiperazine]
[3]
  inhibition at 10 µM: 0%
